Test results taken from patent US9233092B2, “Compositions and methods for inhibiting gastric acid secretion using derivatives of small dicarboxylic acids in combination with PPI” (Vecta, Ltd., priority 2006, dated 2016).
Entries after “also recorded” stand apart in the source; their conditions may differ.

What was measured:
gastric acid output = conditions: humans; Teyssen et al., J. Clin Invest. 1999; cited from earlier work
gastric acid secretion [1] = experiment: Conscious pylorus-ligated rats: effect of succinates on the activity of pantoprazole on gastric acid secretion; type: in vivo; conditions: oral gavage, succinate (SA 14.88 mg/kg or dmS 17.65 mg/kg) given 30 min prior to pantoprazole, FIG. 2
Method: To further study the delayed or sustained enhancement effect of dimethyl ester of succinic acid on the activity of pantoprazole, an experimental model of conscious pylorus-ligated rats was used. This experimental model permits the analysis of the effect of drugs on gastric acid secretion in conscious animals and avoids the effect of anesthesia on gastric acid secretion. Pantoprazole alone ([…]) or in combination with succinic acid (SA, 14.88 mg/kg) or dimethyl ester of succinic acid (dmS, 17.65 mg/kg) were administered by oral gavage. The succinates were administered 30 min prior to the administration of pantoprazole in order to test the sustained or delayed effect of dimethyl ester of succinic acid compared to the non-derivatized succinic acid. 120 min post succinates administration, the animals were anesthetized using anesthetic gas machine for a short period (5 minutes) that is sufficient to perform the pylorus ligation procedure and to close the abdomen. The animals were then placed back into its cage for additional 110 min after which the animals were sacrificed. The ligature was placed around the esophagus, the stomach removed and gastric content was collected. Following centrifugation, the gastric output and the pH of the gastric juice samples was determined. Data is presented as mean±SEM of gastric output. The number of animals is 6-7 in each experimental group.

gastric acid secretion [2] = experiment: Stimulation of gastric acid secretion after oral administration, pylorus ligated 60 min after dosing, acid output by NaOH titration; type: in vivo; conditions: rats, per os, SA 14.88 mg/kg, mS 16.65 mg/kg, dmS 17.65 mg/kg, gastric juice collected 30 min later
Method: Rats were administered (per os) with succinic acid (SA, 14.88 mg/kg), monomethylester of succinic acid (mS, 16.65 mg/kg) or dimethyl ester of succinic acid (dmS, 17.65 mg/kg) using gavage. 60 minutes later the rats were anesthetized with ketamine/domitor and the pylorus was ligated. Following additional 30 min, gastric juice was collected from the gastric lumen. Acid output was determined by titration with NaOH. Total acid output expressed in mEq HCl was calculated by multiplying the sample volume by the acid concentration. Results are expressed as means±SEM of 8 animals from each experimental group.

SMILES: O=C(O)/C=C\C(=O)O [Maleic acid]
- stimulation of gastric acid output (gastric acid output): powerful stimulants of gastric acid output

SMILES: O=C(O)CCC(=O)O [SA, succinic acid, reference compound]
- enhancement of the effect of pantoprazole (PPI) on gastric acid output (gastric acid secretion [1]): only dimethyl ester of succinic acid was capable of enhancing the effect of PPI
- gastric acid output (total acid output) (gastric acid secretion [2]; FIG. 1): did not show an effect
- stimulation of gastric acid output (gastric acid output): powerful stimulants of gastric acid output

SMILES: COC(=O)CCC(=O)OC [dmS, dimethyl ester of succinic acid]
- enhancement of the effect of pantoprazole (PPI) on gastric acid output (gastric acid secretion [1]): capable of enhancing the activity of pantoprazole on gastric acid secretion; also recorded: capable of enhancing the effect of PPI on gastric acid output
- gastric acid output (total acid output) (gastric acid secretion [2]; FIG. 1): effective in enhancing gastric output
- gastric acid output (total acid output) (gastric acid secretion [2]; FIG. 1, listed as succinic acid dimethyl ester): capable of enhancing gastric acid output even after 60 minutes from dosing

SMILES: COC(=O)CCC(=O)O [mS, monomethylester of succinic acid]
- gastric acid output (total acid output) (gastric acid secretion [2]; FIG. 1): effective in enhancing gastric output
